Among the data in ChEMBL document CHEMBL4483862, “Open-source discovery of chemical leads for next-generation chemoprotective antimalarials” (2018) are IC50 and IC90 values, retold here.

For orientation: IC50 means the midpoint of a concentration-inhibition curve. Broadly, the IC90 is the point of the concentration-response curve where the effect stands at 90%.

The subject of the assay is Plasmodium berghei. Put plainly: Luciferase/luciferin-expressing antifolate-resistant parasites were used to infect a culture of HepG2 cells that were pre-incubated with compounds. Infected hepatocytes emit light due to the luciferase reaction. Assay results are presented as the percent inhibition of light emission compared to control. […]. Particulars: sporozoite; for IC90: read-out: LUCIFERASE INFECTION ASSAY - IC90. Format: functional.

[1] abbreviates: read-out: LUCIFERASE INFECTION ASSAY - IC50.

`COc1ccc(-c2c(C)nn3c(NCc4ccccn4)cc(C)nc23)cc1OC`: the 90% effect concentration (IC90) came out at 7.49 µM. The half-maximal inhibitory concentration (IC50) (HEPG2TOX_HILL_SLOPE 8.52, HEPG2TOX_R_SQUARED 0.776, PBLUC_HILL_SLOPE 1.28, PBLUC_R_SQUARED 0.799, read-out: LUCIFERASE INFECTION ASSAY - IC50) was found to be 1.34 µM.
As for `Cc1c(C(=O)Nc2ccccc2C(=O)NC2CC2)cnn1-c1cccc(C(F)(F)F)c1`, the IC90 worked out at 0.41 µM. Moreover, the IC50 (HEPG2TOX_HILL_SLOPE 8.3, HEPG2TOX_R_SQUARED 0.547, PBLUC_HILL_SLOPE 12.1, PBLUC_R_SQUARED 0.521, read-out: LUCIFERASE INFECTION ASSAY - IC50) is 0.342 µM.
Turning to `C/C(=N\Nc1nc2ccccc2[nH]1)c1ccc(N2CCOCC2)cc1`, the concentration for an effect of 90% (IC90) was more than 10 µM. Moreover, the half-inhibitory concentration (IC50) under setting [1] was more than 10 µM.
For `Cc1cc(C)c2c(c1)C(=O)/C(=C/c1ccc(N(C)CCC#N)cc1)CC2`, the IC90 is more than 10 µM. Under setting [1], the concentration for half-maximal inhibition (IC50) is more than 10 µM.
Take `Cc1cc(C)c(SC(C)C(=O)NC(N)=O)c(C)c1` (centres undefined): the 90% effect concentration (IC90) was more than 10 µM. For the same compound, the IC50 under setting [1] was more than 10 µM.
For `FC(F)(F)c1cc(-n2c(-c3cccnc3Oc3ccccc3)n[nH]c2=S)cc(C(F)(F)F)c1`, the IC90 is 4.66 µM. In addition, the 50% inhibitory concentration (IC50) (HEPG2TOX_HILL_SLOPE 12.4, HEPG2TOX_R_SQUARED 0.913, PBLUC_HILL_SLOPE 1.97, PBLUC_R_SQUARED 0.614, read-out: LUCIFERASE INFECTION ASSAY - IC50) turned out to be 1.53 µM.
As for `COc1ccc(CN2CCCN(C(=O)c3ccc(CSc4nc5ccccc5[nH]4)cc3)CC2)cc1`, the 90% effect concentration (IC90) was more than 10 µM. For the same compound, under “HEPG2TOX_HILL_SLOPE 1.31, HEPG2TOX_R_SQUARED 0.944, read-out: LUCIFERASE INFECTION ASSAY - IC50”, the half-inhibitory concentration (IC50) is more than 10 µM.
Consider `c1ccc(-c2csc3nc(CN4CCOCC4)nc(NCc4cnn(-c5ccccc5)c4)c23)cc1`, for which the IC90 was more than 10 µM. Besides, the IC50 under setting [1] was more than 10 µM.
For `O=C(NCCOc1cccc(Oc2ccccc2)c1)c1cccs1`, the concentration for an effect of 90% (IC90) was more than 9.72 µM. Besides, where the note is “HEPG2TOX_HILL_SLOPE 9.69, HEPG2TOX_R_SQUARED 0.418, PBLUC_HILL_SLOPE 2.28, PBLUC_R_SQUARED 0.595, read-out: LUCIFERASE INFECTION ASSAY - IC50”, the IC50 is 4.13 µM.
In the case of `CC(c1cc2ccccc2o1)N(C)C(=O)Cc1ccccc1F` (centres undefined), the IC90 is more than 10 µM. Further, the IC50 under setting [1] was more than 10 µM.
With `O=C(Nc1ccc(Oc2ccc3ccccc3c2)cc1)c1ccccc1`, the IC90 was found to be 1.16 µM. Moreover, for the setting “HEPG2TOX_HILL_SLOPE 2.3, HEPG2TOX_R_SQUARED 0.782, PBLUC_HILL_SLOPE 2.18, PBLUC_R_SQUARED 0.822, read-out: LUCIFERASE INFECTION ASSAY - IC50”, the IC50 was determined as 0.424 µM.
`COC(=O)c1c(-c2cccs2)csc1NC(=O)CSc1cc(C)c2ccccc2n1`: the 90% effect concentration (IC90) was more than 10 µM. Besides, the IC50 under setting [1] was more than 10 µM.
With `O=C(CNc1cccc(S(=O)(=O)N2CCCCC2)c1)NC(=O)NC1CCCCC1`, the 90% effect concentration (IC90) is more than 10 µM. Moreover, the concentration for half-maximal inhibition (IC50) (PBLUC_HILL_SLOPE 11, PBLUC_R_SQUARED 0.0354, read-out: LUCIFERASE INFECTION ASSAY - IC50) came out at 9.65 µM.
As to `C=CCn1cnnc1SCC(=O)c1cccn1C`, the concentration for an effect of 90% (IC90) was more than 10 µM. Moreover, the IC50 under setting [1] is more than 10 µM.
With `CCN(c1ccc(NC(=O)c2ccc3c(c2)NC(=O)CS3)cc1)C(C)C`, the 90% effect concentration (IC90) amounted to 3.68 µM. Further, the IC50 (HEPG2TOX_HILL_SLOPE 14.6, HEPG2TOX_R_SQUARED 0.71, PBLUC_HILL_SLOPE 18.6, PBLUC_R_SQUARED 0.967, read-out: LUCIFERASE INFECTION ASSAY - IC50) was 3.27 µM.
Take `Cc1noc(C)c1COc1ccc(C(=O)OCC(=O)NC(C)C23CC4CC(CC(C4)C2)C3)cc1` (centres undefined): the IC90 is more than 10 µM. Besides, the half-inhibitory concentration (IC50) under setting [1] is more than 10 µM.
As for `Cc1ccccc1-c1cccc(CN2CCC3(CC2)C(=O)N(CCCc2ccncc2)C(=O)N3C)c1`, the 90% effect concentration (IC90) is 2.53 µM. The IC50 (HEPG2TOX_HILL_SLOPE 0.98, HEPG2TOX_R_SQUARED 0.922, PBLUC_HILL_SLOPE 14, PBLUC_R_SQUARED 0.565, read-out: LUCIFERASE INFECTION ASSAY - IC50) came to 2.16 µM.
As to `Cn1c(=O)c2ccc(C(=O)Nc3cccc(C(=O)Nc4cccc(C(F)(F)F)c4)c3)nc2n(C)c1=O`, the concentration for an effect of 90% (IC90) is more than 10 µM. Further, the 50% inhibitory concentration (IC50) (PBLUC_HILL_SLOPE 3.03, PBLUC_R_SQUARED 0.059, read-out: LUCIFERASE INFECTION ASSAY - IC50) was determined as 6.54 µM.
As to `O=C(CN1CCN(C(=O)CN2C(=O)NC3(CCCC3)C2=O)CC1)N1CCCC1`, the IC90 was more than 10 µM. Further, the half-inhibitory concentration (IC50) under setting [1] was more than 10 µM.
In the case of `Cc1cc(=O)n2nc(C)c(-c3ccc(F)cc3)c2[nH]1`, the IC90 is more than 12.8 µM. For the same compound, under “PBLUC_HILL_SLOPE 15.8, PBLUC_R_SQUARED 0.105, read-out: LUCIFERASE INFECTION ASSAY - IC50”, the IC50 is more than 12.8 µM.
On to `COCCN(CCOC)C(=O)CSc1nnc(/C=C/c2ccccc2)[nH]1`, for which the 90% effect concentration (IC90) is more than 10 µM. The half-inhibitory concentration (IC50) under setting [1] was more than 10 µM.
In the case of `Clc1ccccc1COc1ccccc1CNCc1cccnc1`, the IC90 is more than 9.74 µM. Under setting [1], the concentration for half-maximal inhibition (IC50) was more than 9.74 µM.
As for `Cc1ccccc1CN1CCN(c2cc(=O)n3ccccc3n2)CC1`, the IC90 is more than 10 µM. Also, the 50% inhibitory concentration (IC50) under setting [1] was found to be 6.42 µM.
Turning to `CC1CC(C)CN(Cc2nc(=O)c3c(-c4ccc(Cl)cc4)csc3[nH]2)C1` (centres undefined), the 90% effect concentration (IC90) came to 6.66 µM. Further, the 50% inhibitory concentration (IC50) (FFLUC_HILL_SLOPE 12.3, FFLUC_R_SQUARED 0.735, PBLUC_HILL_SLOPE 4.47, PBLUC_R_SQUARED 0.339, read-out: LUCIFERASE INFECTION ASSAY - IC50) was found to be 4.07 µM.
As to `O=C(Nc1ccc(N2CCOCC2)cn1)c1ccccc1`, the 90% effect concentration (IC90) was more than 10 µM.
As to `Nc1nc(CNC(c2ccccc2)c2ccc(Cl)cc2)nc(Nc2ccccc2)n1` (centres undefined), the IC90 is more than 10 µM. Also, under “FFLUC_HILL_SLOPE 14.9, FFLUC_R_SQUARED 0.741, read-out: LUCIFERASE INFECTION ASSAY - IC50”, the concentration for half-maximal inhibition (IC50) was more than 10 µM.
Consider `Cc1ccc(-c2nn(-c3ccccc3)cc2CN(C)C(=O)CCNC(=O)c2ccco2)cc1C`, for which the IC90 is more than 10 µM. Besides, the IC50 (PBLUC_HILL_SLOPE 3, PBLUC_R_SQUARED 0.508, read-out: LUCIFERASE INFECTION ASSAY - IC50) is 5.91 µM.
For the compound `Oc1ccc(-c2cn3c(-c4ccsc4)cnc3cn2)cc1`, the IC90 was more than 11.2 µM. Moreover, under setting [1], the IC50 was determined as 10.6 µM.
On to `CC1CCC(N(C)C(=O)C2CCN(S(=O)(=O)c3ccc4c(c3)CCC4)CC2)CC1` (centres undefined), for which the IC90 was more than 10 µM. The IC50 (PBLUC_HILL_SLOPE 16.6, PBLUC_R_SQUARED 0.0251, read-out: LUCIFERASE INFECTION ASSAY - IC50) came out at 9.82 µM.
On to `COc1cccc(CN2CCC2(C)C(=O)Nc2ccccc2Cc2ccccc2)c1OC` (centres undefined), for which the concentration for an effect of 90% (IC90) is more than 7.66 µM. Further, under setting [1], the IC50 is more than 7.66 µM.
On to `O=c1c(Cl)c2oc3ccccc3nc-2c2ccccc12`, for which the IC90 was more than 11.7 µM. Moreover, the IC50 (HEPG2TOX_HILL_SLOPE 6.69, HEPG2TOX_R_SQUARED 0.668, PBLUC_HILL_SLOPE 2.65, PBLUC_R_SQUARED 0.745, read-out: LUCIFERASE INFECTION ASSAY - IC50) worked out at 5.79 µM.
As for `C=CCn1c(SCc2ccccn2)nc2sccc2c1=O`, the 90% effect concentration (IC90) is more than 10 µM. For the same compound, the IC50 (HEPG2TOX_HILL_SLOPE 8.76, HEPG2TOX_R_SQUARED 0.722, PBLUC_HILL_SLOPE 2.66, PBLUC_R_SQUARED 0.469, read-out: LUCIFERASE INFECTION ASSAY - IC50) was 8.34 µM.
For the compound `CCOC(=O)c1[nH]c(C)c(C(=O)OCC(=O)Nc2ccc(Cl)cn2)c1C`, the concentration for an effect of 90% (IC90) was determined as 2.91 µM. Also, the concentration for half-maximal inhibition (IC50) (HEPG2TOX_HILL_SLOPE 0.952, HEPG2TOX_R_SQUARED 0.987, PBLUC_HILL_SLOPE 2.41, PBLUC_R_SQUARED 0.555, read-out: LUCIFERASE INFECTION ASSAY - IC50) was 1.17 µM.
`COc1cc(OC)c(NC(=O)CN2CCC(c3c[nH]c4ccccc34)CC2)cc1Cl`: the IC90 was more than 10 µM. The IC50 (HEPG2TOX_HILL_SLOPE 7.32, HEPG2TOX_R_SQUARED 0.598, PBLUC_HILL_SLOPE 4.32, PBLUC_R_SQUARED 0.304, read-out: LUCIFERASE INFECTION ASSAY - IC50) was found to be 8.18 µM.
Take `OC(c1cn2cc(-c3ccc(F)cc3)nc2s1)(C(F)(F)F)C(F)(F)F`: the concentration for an effect of 90% (IC90) stood at 6.57 µM. Also, the half-inhibitory concentration (IC50) (PBLUC_HILL_SLOPE 0.791, PBLUC_R_SQUARED 0.914, read-out: LUCIFERASE INFECTION ASSAY - IC50) came to 0.408 µM.
Regarding `COc1ccccc1CNc1ccnc2cc(Cl)ccc12`, the 90% effect concentration (IC90) worked out at 3.82 µM. Further, the IC50 (HEPG2TOX_HILL_SLOPE 2.2, HEPG2TOX_R_SQUARED 0.908, PBLUC_HILL_SLOPE 13.6, PBLUC_R_SQUARED 0.424, read-out: LUCIFERASE INFECTION ASSAY - IC50) was found to be 3.25 µM.
As for `COc1ccc(C(CNC(=O)c2ccc(Oc3ccc(Cl)cc3[N+](=O)[O-])cc2)N2CCCC2)cc1` (centres undefined), the IC90 was more than 10 µM. Also, for the setting “PBLUC_HILL_SLOPE 1.72, PBLUC_R_SQUARED 0.19, read-out: LUCIFERASE INFECTION ASSAY - IC50”, the half-maximal inhibitory concentration (IC50) stood at 6.08 µM.
For `O=C1NC2(CCc3ccccc32)C(=O)N1Cc1cc2ccccc2nc1Cl` (centres undefined), the IC90 is more than 10 µM. Moreover, the IC50 (HEPG2TOX_HILL_SLOPE 1.06, HEPG2TOX_R_SQUARED 0.864, read-out: LUCIFERASE INFECTION ASSAY - IC50) was more than 10 µM.
`CCCN(CCC)c1ccc(C(C2C(=O)CC(C)(C)CC2=O)C2C(=O)CC(C)(C)CC2=O)cc1`: the 90% effect concentration (IC90) is more than 10 µM. For the setting “FFLUC_HILL_SLOPE 2.34, FFLUC_R_SQUARED 0.0441, PBLUC_HILL_SLOPE 3.18, PBLUC_R_SQUARED 0.551, read-out: LUCIFERASE INFECTION ASSAY - IC50”, the half-inhibitory concentration (IC50) came to 5.61 µM.
As for `OCCCNc1nc(-c2ccccc2)nc2sc(-c3ccccc3)cc12`, the concentration for an effect of 90% (IC90) is more than 10 µM. The IC50 under setting [1] is more than 10 µM.
